Reference: US20030055092A1, “Remedies for ischemic stroke” (priority 1998, published 2003)
Each block holds one compound with its values, some of them ahead of it.

Experiments:
[1] = test system: gerbils exposed to 5 min of cerebral ischemia; conditions: cited from earlier work
mGluR5 = target: T1, mGluR5 (Rattus norvegicus, UniProt P31424); test: agonist/antagonist activity in mGluR5a-expressing NIH3T3 cells; type: cell-based; conditions: up to 10 μM
T1 construct: expressed in transfected cells; host or cells: NIH3T3
Procedure: (§1) NIH3T3 cells expressed mGluR1 α and mGluR5a individually were cultured in DMEM medium containing 10% dialyzed fetal bovine serum and 100 units/ml, 0.1 mg/ml streptomycin sulfate. CHO cells which expressed mGluR2, R3, R4, R6 and R7 individually were cultured in DMEM medium containing 10% dialyzed fetal bovine serum, 100 units/ml, 0.1 mg/ml streptomycin sulfate and 2 mM glutamine.

mGluR2 = target: T2, mGluR2 (Rattus norvegicus, UniProt P31421); test: forskolin-induced cAMP formation in mGluR2-expressing CHO cells; type: cell-based; conditions: up to 100 μM
T2 construct: expressed in transfected cells; host or cells: CHO
Procedure: as §1, with “glutamine. Using the cells expressing mGluR2, R3, R4, R6 and R7 cAMP formation induced by forskolin in the presence of IBMX was measured using a cAMP measuring kit as previously described (Neuron, 8, 169-179, 1992).” for “glutamine.”

mGluR1α = target: T3, mGluR1α (Rattus norvegicus, UniProt P23385); test: glutamate-induced phosphatidylinositol (PI) hydrolysis in mGluR1α-expressing cells; type: cell-based; conditions: 100 μM glutamate, read-out: IC50 for inhibition of glutamate-induced PI formation against mGluR1α
T3 construct: expressed in transfected cells; host or cells: NIH3T3
Procedure: as §1, with “glutamine. Hydrolysis of phosphatidylinositol was measured as previously described (Nature, 383, 89-92, 1996) using the mGluR1 α-expressing cells incorporated ^3H-inositol.” for “glutamine.”

mGluR7 = target: T4, mGluR7 (Rattus norvegicus, UniProt P35400); test: forskolin-induced cAMP formation in mGluR7-expressing CHO cells; type: cell-based; conditions: up to 100 μM
T4 construct: expressed in transfected cells; host or cells: CHO
Procedure: as §1, with “glutamine. Using the cells expressing mGluR2, R3, R4, R6 and R7 cAMP formation induced by forskolin in the presence of IBMX was measured using a cAMP measuring kit as previously described (Neuron, 8, 169-179, 1992).” for “glutamine.”

mGluR3 = target: T5, mGluR3 (Rattus norvegicus, UniProt P31422); test: forskolin-induced cAMP formation in mGluR3-expressing CHO cells; type: cell-based; conditions: up to 100 μM
T5 construct: expressed in transfected cells; host or cells: CHO
Procedure: as §1, with “glutamine. Using the cells expressing mGluR2, R3, R4, R6 and R7 cAMP formation induced by forskolin in the presence of IBMX was measured using a cAMP measuring kit as previously described (Neuron, 8, 169-179, 1992).” for “glutamine.”

[2] = test system: Fischer-344 rat, permanent left MCA occlusion; test: permanent MCA occlusion model, cerebral infarct volume (TTC staining); type: in vivo; conditions: 6 mg/kg/h i.v. continuously for 24 hours from 5 minutes after occlusion
Procedure: Compound A was dissolved in physiological saline and adjusted to 6 mg/3 ml. In accordance with the known method (J. Pharmacol. Exp. Thr., 276, 84-92, 1996), left MCA of a Fischer-344 rat was subjected to permanent occlusion and, 5 minutes thereafter, the compound A was intravenously administered continuously for 24 hours at a rate of 6 mg/a dose volume of 3 ml/kg/h under no anesthesia and no restriction. After completion of the administration, the animal was decapitated to excise the brain which was subsequently stained with 2,3,5-triphenyltetrazolium hydrochloride (TTC) to measure infarct volume.

mGluR4 = target: T6, mGluR4 (Rattus norvegicus, UniProt P31423); test: forskolin-induced cAMP formation in mGluR4-expressing CHO cells; type: cell-based; conditions: up to 100 μM
T6 construct: expressed in transfected cells; host or cells: CHO
Procedure: as §1, with “glutamine. Using the cells expressing mGluR2, R3, R4, R6 and R7 cAMP formation induced by forskolin in the presence of IBMX was measured using a cAMP measuring kit as previously described (Neuron, 8, 169-179, 1992).” for “glutamine.”

mGluR6 = target: T7, mGluR6 (Rattus norvegicus, UniProt P35349); test: forskolin-induced cAMP formation in mGluR6-expressing CHO cells; type: cell-based; conditions: up to 100 μM
T7 construct: expressed in transfected cells; host or cells: CHO
Procedure: as §1, with “glutamine. Using the cells expressing mGluR2, R3, R4, R6 and R7 cAMP formation induced by forskolin in the presence of IBMX was measured using a cAMP measuring kit as previously described (Neuron, 8, 169-179, 1992).” for “glutamine.”

T6 sequence (P31423 33-912): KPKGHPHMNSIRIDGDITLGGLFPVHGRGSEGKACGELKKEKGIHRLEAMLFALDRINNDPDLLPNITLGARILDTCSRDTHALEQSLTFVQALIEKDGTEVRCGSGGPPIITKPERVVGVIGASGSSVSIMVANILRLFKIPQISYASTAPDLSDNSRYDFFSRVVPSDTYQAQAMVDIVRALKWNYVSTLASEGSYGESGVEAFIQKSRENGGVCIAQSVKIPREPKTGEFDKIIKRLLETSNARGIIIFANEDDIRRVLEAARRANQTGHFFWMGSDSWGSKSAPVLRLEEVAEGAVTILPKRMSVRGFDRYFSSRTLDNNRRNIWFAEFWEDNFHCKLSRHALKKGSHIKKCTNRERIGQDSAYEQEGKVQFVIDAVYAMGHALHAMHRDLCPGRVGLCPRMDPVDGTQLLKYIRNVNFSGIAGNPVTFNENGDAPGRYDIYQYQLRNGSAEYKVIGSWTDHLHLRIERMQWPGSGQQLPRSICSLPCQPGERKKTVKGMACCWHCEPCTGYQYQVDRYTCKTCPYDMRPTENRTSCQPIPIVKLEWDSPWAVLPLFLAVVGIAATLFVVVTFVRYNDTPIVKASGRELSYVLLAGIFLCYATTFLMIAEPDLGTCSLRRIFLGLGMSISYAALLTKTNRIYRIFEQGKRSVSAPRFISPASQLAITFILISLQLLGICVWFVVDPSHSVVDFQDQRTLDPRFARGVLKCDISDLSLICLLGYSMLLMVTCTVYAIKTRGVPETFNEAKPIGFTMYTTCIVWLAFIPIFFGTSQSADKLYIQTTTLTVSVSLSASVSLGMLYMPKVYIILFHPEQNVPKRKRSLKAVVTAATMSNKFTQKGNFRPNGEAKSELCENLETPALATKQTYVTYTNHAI
T4 sequence (P35400 35-915): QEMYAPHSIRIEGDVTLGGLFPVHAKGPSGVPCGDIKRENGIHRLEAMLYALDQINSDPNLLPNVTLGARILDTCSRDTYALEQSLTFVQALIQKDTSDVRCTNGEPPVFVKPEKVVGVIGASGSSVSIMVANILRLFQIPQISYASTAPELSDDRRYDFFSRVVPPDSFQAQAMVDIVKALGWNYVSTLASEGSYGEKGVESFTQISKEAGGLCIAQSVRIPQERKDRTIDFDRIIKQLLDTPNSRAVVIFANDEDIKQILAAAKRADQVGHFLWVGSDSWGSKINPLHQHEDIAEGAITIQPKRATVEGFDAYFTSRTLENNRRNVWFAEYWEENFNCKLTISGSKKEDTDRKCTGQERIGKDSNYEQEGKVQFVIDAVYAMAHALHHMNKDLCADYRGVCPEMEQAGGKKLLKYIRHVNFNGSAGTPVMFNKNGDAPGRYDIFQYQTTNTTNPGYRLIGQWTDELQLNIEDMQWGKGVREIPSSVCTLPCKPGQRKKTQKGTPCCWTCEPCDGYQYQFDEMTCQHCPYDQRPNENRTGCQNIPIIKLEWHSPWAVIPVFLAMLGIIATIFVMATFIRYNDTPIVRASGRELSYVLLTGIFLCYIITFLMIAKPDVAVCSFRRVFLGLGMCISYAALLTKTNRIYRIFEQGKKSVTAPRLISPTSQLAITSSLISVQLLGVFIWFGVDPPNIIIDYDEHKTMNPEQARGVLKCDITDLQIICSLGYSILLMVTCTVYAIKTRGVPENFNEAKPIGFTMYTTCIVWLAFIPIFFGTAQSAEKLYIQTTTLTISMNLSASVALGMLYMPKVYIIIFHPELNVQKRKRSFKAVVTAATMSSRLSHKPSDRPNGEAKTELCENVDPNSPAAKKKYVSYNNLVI
T2 sequence (P31421 19-872): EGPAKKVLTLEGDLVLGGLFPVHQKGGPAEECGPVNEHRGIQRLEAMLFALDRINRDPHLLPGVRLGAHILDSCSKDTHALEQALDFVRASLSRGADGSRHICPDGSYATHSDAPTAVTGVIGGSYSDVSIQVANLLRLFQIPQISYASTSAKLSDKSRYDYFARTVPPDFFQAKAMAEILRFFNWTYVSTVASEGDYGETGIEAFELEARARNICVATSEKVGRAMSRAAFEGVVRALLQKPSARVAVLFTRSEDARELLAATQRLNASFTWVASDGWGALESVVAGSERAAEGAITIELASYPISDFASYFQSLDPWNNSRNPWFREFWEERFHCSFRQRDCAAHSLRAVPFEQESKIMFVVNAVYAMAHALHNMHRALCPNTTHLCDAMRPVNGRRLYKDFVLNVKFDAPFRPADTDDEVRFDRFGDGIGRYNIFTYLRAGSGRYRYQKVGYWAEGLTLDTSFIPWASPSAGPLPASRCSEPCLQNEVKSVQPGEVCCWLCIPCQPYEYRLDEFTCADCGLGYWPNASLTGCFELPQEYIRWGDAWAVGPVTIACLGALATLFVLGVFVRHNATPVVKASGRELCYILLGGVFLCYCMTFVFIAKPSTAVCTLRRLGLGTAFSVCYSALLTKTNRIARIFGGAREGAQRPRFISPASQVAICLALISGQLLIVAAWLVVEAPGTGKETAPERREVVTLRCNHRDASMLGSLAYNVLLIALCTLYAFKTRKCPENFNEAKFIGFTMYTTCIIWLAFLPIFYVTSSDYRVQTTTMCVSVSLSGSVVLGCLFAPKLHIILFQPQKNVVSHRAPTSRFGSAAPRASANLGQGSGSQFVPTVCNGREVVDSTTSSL
T7 sequence (P35349 24-871): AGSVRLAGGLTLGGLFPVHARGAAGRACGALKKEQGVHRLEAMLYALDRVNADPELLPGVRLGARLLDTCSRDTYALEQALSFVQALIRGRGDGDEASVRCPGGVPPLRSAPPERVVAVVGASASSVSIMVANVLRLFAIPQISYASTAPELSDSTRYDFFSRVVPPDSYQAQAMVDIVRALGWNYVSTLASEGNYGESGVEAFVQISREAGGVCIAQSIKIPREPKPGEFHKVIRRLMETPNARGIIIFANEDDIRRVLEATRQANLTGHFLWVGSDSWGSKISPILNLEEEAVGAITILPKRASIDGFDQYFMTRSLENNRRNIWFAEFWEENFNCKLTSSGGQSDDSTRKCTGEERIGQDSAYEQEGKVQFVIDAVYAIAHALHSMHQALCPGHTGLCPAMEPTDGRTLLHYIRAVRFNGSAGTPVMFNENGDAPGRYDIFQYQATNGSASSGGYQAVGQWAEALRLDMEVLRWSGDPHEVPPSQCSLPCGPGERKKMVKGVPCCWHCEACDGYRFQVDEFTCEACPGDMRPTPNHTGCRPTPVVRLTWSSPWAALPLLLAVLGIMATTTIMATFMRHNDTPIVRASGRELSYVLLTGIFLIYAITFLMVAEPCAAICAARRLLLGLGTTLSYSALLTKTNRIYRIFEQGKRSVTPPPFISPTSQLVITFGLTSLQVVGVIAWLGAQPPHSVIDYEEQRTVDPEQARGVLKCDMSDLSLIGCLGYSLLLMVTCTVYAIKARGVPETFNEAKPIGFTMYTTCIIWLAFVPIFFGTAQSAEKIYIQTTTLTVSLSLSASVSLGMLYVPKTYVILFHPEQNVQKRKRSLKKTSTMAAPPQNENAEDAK
T3 sequence (P23385 19-1199): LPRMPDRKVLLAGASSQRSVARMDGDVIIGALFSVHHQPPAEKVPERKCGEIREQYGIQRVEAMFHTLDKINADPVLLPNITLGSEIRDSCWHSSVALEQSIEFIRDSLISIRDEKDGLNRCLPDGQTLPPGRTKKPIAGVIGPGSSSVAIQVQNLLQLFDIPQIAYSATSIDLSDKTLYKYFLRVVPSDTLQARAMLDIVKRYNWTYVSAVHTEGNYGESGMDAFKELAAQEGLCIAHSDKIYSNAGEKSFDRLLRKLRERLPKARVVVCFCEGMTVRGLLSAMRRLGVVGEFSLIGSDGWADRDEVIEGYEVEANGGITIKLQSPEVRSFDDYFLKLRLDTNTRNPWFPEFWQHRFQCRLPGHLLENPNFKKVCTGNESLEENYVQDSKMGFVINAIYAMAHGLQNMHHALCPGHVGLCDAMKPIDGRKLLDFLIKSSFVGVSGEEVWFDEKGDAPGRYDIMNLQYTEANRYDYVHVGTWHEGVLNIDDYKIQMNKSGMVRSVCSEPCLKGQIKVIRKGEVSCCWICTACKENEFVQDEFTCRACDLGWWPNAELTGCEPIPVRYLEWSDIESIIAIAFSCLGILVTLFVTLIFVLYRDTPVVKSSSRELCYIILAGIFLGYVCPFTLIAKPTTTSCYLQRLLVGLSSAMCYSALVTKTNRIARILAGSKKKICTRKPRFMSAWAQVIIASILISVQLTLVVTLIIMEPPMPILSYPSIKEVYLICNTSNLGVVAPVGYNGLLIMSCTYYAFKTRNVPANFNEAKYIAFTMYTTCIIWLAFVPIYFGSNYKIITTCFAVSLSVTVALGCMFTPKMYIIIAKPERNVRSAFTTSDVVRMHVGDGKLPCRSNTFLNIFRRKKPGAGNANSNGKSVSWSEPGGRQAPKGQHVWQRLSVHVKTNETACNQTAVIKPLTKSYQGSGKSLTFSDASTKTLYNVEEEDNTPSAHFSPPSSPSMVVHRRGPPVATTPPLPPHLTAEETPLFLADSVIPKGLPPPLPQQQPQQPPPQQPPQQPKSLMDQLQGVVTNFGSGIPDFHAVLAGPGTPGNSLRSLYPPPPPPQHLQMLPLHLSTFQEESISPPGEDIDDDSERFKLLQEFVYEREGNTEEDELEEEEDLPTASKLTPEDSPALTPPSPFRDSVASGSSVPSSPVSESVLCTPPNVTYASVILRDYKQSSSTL

SMILES: N[C@H](C(=O)O)c1ccc(C(=O)O)cc1 [4 CPG, (S)-4-carboxyphenylglycine]
neuroprotective effectiveness in the same gerbil model [1]: is not effective

SMILES: NC1(C(=O)O)CCc2cc(C(=O)O)ccc21 (stereo not shown) [AIDA]
loss of neuronal cells in CA1 area ([1]; intraventricular administration): reduced the loss of the neuronal cells

SMILES: N[C@H](C(=O)O)c1ccc(C(=O)O)c(O)c1 [4 C3 HPG, (S)-4-carboxy-3 hydroxyphenylglycine]
neuroprotective effectiveness in the same gerbil model [1]: is effective

agonist and antagonist activities against mGluR5 (mGluR5): no agonist and antagonist activities
agonist and antagonist activities against mGluR2 (mGluR2): no agonist and antagonist activities
IC50 (mGluR1α): 24 nM
agonist and antagonist activities against mGluR7 (mGluR7): no agonist and antagonist activities
agonist and antagonist activities against mGluR3 (mGluR3): no agonist and antagonist activities
agonist and antagonist activities against mGluR4 (mGluR4): no agonist and antagonist activities
agonist and antagonist activities against mGluR6 (mGluR6): no agonist and antagonist activities
SMILES: Cc1c(C(=O)N(C)C2CCCCC2)sc2nc3ccc(N)cc3n12.Cl.Cl [compound A, 6-amino-N-cyclohexyl-N,3-dimethylthiazolo[3,2-a]benzoimidazole-2-carboxamide dihydrochloride]
cerebral infarct volume suppression ratio in cerebral cortex [2]: 36%
cerebral infarct volume suppression ratio in cerebral hemisphere [2]: 29%
effect on cerebral infarct volume versus controls [2]: reduced the cerebral infarct volume significantly
